Experimental findings from ChEMBL document CHEMBL4715763, “A simple, one pot synthesis of furo[3,2-c]chromenes and evaluation of antimicrobial activity” (2016) are described below.

Structures are written as SMILES. Values after ≈ are worked out from the molar mass of the structure shown. Active and inactive are the calls of the source.

Holding throughout (type): functional
Assay [1] relates to Staphylococcus aureus. The experiment in a line: Antimicrobial activity against Staphylococcus aureus MTCC 96 assessed as inhibition zone measured after 24 hrs incubation by well diffusion method. For orientation: Agar diffusion results depend on both activity and mobility in agar.
Assay [2] concerns Bacillus subtilis. The experiment in a line: Antimicrobial activity against Bacillus subtilis MTCC 121 assessed as inhibition zone measured after 24 hrs incubation by well diffusion method.
Assay [3] has as its system Staphylococcus aureus. The experiment in a line: Antimicrobial activity against Staphylococcus aureus MLS-16 MTCC 2940 assessed as inhibition zone measured after 24 hrs incubation by well diffusion method.
Assay [4] deals with Pseudomonas aeruginosa. The experiment in a line: Antimicrobial activity against Pseudomonas aeruginosa MTCC 2453 assessed as inhibition zone measured after 24 hrs incubation by well diffusion method.
For assay [5], the system named is Candida albicans. The experiment in a line: Antimicrobial activity against Candida albicans MTCC 3017 assessed as inhibition zone measured after 24 hrs incubation by well diffusion method.
The test system of assay [6] is Micrococcus luteus. The experiment in a line: Antimicrobial activity against Micrococcus luteus MTCC 2470 assessed as inhibition zone measured after 24 hrs incubation by well diffusion method.
Assay [7] concerns Raoultella planticola. The experiment in a line: Antimicrobial activity against Klebsiella planticola MTCC 530 assessed as inhibition zone measured after 24 hrs incubation by well diffusion method.
Assay [8] relates to Escherichia coli. The experiment in a line: Antimicrobial activity against Escherichia coli MTCC 739 assessed as inhibition zone measured after 24 hrs incubation by well diffusion method.
For assay [9], the system named is Bacillus subtilis. The experiment in a line: Bactericidal activity against Bacillus subtilis MTCC 121 assessed as bacterial killing after 24 hrs incubation by NCCLS protocol-based broth microdilution method. (Broth dilution looks for growth in wells or tubes with falling amounts of substance.)
Assay [10] concerns Micrococcus luteus. The experiment in a line: Bactericidal activity against Micrococcus luteus MTCC 2470 assessed as bacterial killing after 24 hrs incubation by NCCLS protocol-based broth microdilution method.
Assay [11] relates to Raoultella planticola. The experiment in a line: Bactericidal activity against Klebsiella planticola MTCC 530 assessed as bacterial killing after 24 hrs incubation by NCCLS protocol-based broth microdilution method.
The subject of assay [12] is Escherichia coli. The experiment in a line: Bactericidal activity against Escherichia coli MTCC 739 assessed as bacterial killing after 24 hrs incubation by NCCLS protocol-based broth microdilution method.

For the compound `CCOC(=O)C1(C#N)Oc2c(c(=O)oc3ccc(C)cc23)C1c1ccccc1` (stereo unspecified), the minimum inhibitory concentration (MIC) in assay [1], in assay [2], in assay [3], in assay [4], in assay [5] and in [6] was over 250 µg/mL throughout. The minimum inhibitory concentration (MIC) in assay [7] was 250 µg/mL (≈ 666 µM); in [8] it was over 250 µg/mL.

Take `COC(=O)C1(C#N)Oc2c(c(=O)oc3ccccc23)C1c1ccc(Br)cc1` (stereo unspecified): the MIC in assay [1], in assay [2], in assay [3], in assay [4], in assay [5] and in assay [6] was over 250 µg/mL in each case. Besides, the MIC was over 250 µg/mL in assay [7] and 12.5 µg/mL (≈ 29.3 µM) in assay [8].

`COC(=O)C1(C#N)Oc2c(c(=O)oc3ccccc23)C1c1ccc(F)cc1` (stereo unspecified): the MIC in assay [1] is 62.5 µg/mL (≈ 171 µM); in [2] it was 7.8 µg/mL (≈ 21.4 µM); in assay [3], 62.5 µg/mL (≈ 171 µM); in assay [4], over 250 µg/mL; in assay [5] it was 62.5 µg/mL (≈ 171 µM); in [6], 7.8 µg/mL (≈ 21.4 µM). Further, the MIC was 7.8 µg/mL (≈ 21.4 µM) in assay [7] and 15.6 µg/mL (≈ 42.7 µM) in assay [8]. Moreover, the MBC in assay [9], in assay [10], in assay [11] and in [12] was 62.5 µg/mL (≈ 171 µM) throughout.

As to `COC(=O)C1(C#N)Oc2c(c(=O)oc3ccccc23)C1c1ccccc1` (stereo unspecified), the MIC in assay [1] was over 250 µg/mL; in assay [2], 62.5 µg/mL (≈ 180 µM); in assay [3], over 250 µg/mL; in assay [4] it was over 250 µg/mL; in assay [5] it was over 250 µg/mL; in assay [6], over 250 µg/mL. Moreover, the minimum inhibitory concentration (MIC) in [7] and in assay [8] was over 250 µg/mL in each case.

For the compound `COC(=O)C1(C#N)Oc2c(c(=O)oc3ccccc23)C1c1cc(OC)c(OC)c(OC)c1` (stereo unspecified), the MIC was 62.5 µg/mL (≈ 143 µM) in assay [1]; over 250 µg/mL in [2]; over 250 µg/mL in assay [3]; over 250 µg/mL in assay [4]; over 250 µg/mL in [5]; over 250 µg/mL in [6]. The minimal inhibitory concentration (MIC) in [7] and in assay [8] was over 250 µg/mL throughout.

As for `Clc1ccc(COC(Cn2ccnc2)c2ccc(Cl)cc2Cl)c(Cl)c1` (stereo unspecified) [MICONAZOLE], the MIC result in assay [1], in [2], in assay [3], in [4], in [6] and in assay [7] was “inactive” throughout. The MIC entry in [8] was “inactive”. Further, the MIC in assay [5] came out at 7.8 µg/mL (≈ 18.7 µM).

Turning to `COC(=O)C1(C#N)Oc2c(c(=O)oc3ccccc23)C1c1ccc(O)cc1` (stereo unspecified), the MIC in assay [1], in assay [2], in assay [3], in assay [4], in assay [5] and in assay [6] was over 250 µg/mL throughout. For the same compound, the MIC in assay [7] and in assay [8] was over 250 µg/mL in each case.

As to `CCOC(=O)C1(C#N)Oc2c(c(=O)oc3ccccc23)C1c1ccc([N+](=O)[O-])cc1` (stereo unspecified), the minimum inhibitory concentration (MIC) in assay [1], in assay [2], in assay [3], in assay [4], in assay [5] and in assay [6] was over 250 µg/mL each time. The minimal inhibitory concentration (MIC) in assay [7] and in assay [8] was over 250 µg/mL throughout.

Consider `COC(=O)C1(C#N)Oc2c(c(=O)oc3ccccc23)C1c1ccc([N+](=O)[O-])cc1` (stereo unspecified), for which the minimum inhibitory concentration (MIC) in assay [1], in [2], in assay [3], in [4], in [5] and in assay [6] was over 250 µg/mL each time. The MIC in assay [7] and in assay [8] was over 250 µg/mL in each case.

Regarding `CCOC(=O)C1(C#N)Oc2c(c(=O)oc3ccccc23)C1c1ccc(C(F)(F)F)cc1` (stereo unspecified), the minimal inhibitory concentration (MIC) in assay [1] was over 250 µg/mL; in assay [2], 250 µg/mL (≈ 582 µM); in assay [3], over 250 µg/mL; in [4] it was over 250 µg/mL; in [5], over 250 µg/mL; in assay [6] it was over 250 µg/mL. For the same compound, the minimum inhibitory concentration (MIC) in assay [7] is 250 µg/mL (≈ 582 µM); in assay [8] it was over 250 µg/mL.

As for `CCOC(=O)C1(C#N)Oc2c(c(=O)oc3ccccc23)C1c1cccc2ccccc12` (stereo unspecified), the MIC in [1], in assay [2], in [3], in assay [4], in [5] and in assay [6] was over 250 µg/mL in each case. For the same compound, the MIC in assay [7] and in assay [8] was over 250 µg/mL each time.

For the compound `CC(C)OC(=O)C1(C#N)Oc2c(c(=O)oc3ccccc23)C1c1ccccc1` (stereo unspecified), the minimum inhibitory concentration (MIC) is 125 µg/mL (≈ 333 µM) in [1]; 250 µg/mL (≈ 666 µM) in assay [2]; 125 µg/mL (≈ 333 µM) in assay [3]; over 250 µg/mL in assay [4]; over 250 µg/mL in [5]; 15.6 µg/mL (≈ 41.6 µM) in assay [6]. The figures for the minimum inhibitory concentration (MIC) in assay [7] and in [8] were 15.6 µg/mL (≈ 41.6 µM) and over 250 µg/mL, respectively. For the same compound, the MBC result in assay [9] and in [12] was “inactive” in each case. The MBC in assay [10] and in assay [11] was 62.5 µg/mL (≈ 166 µM) each time.

As to `COC(=O)C1(C#N)Oc2c(c(=O)oc3ccccc23)C1c1ccc(C)cc1` (stereo unspecified), the minimum inhibitory concentration (MIC) in [1] was over 250 µg/mL; in assay [2] it was over 250 µg/mL; in assay [3], over 250 µg/mL; in assay [4] it was over 250 µg/mL; in [5], over 250 µg/mL; in [6], 125 µg/mL (≈ 346 µM). Also, the minimal inhibitory concentration (MIC) in [7] and in [8] was over 250 µg/mL each time.

`COC(=O)C1(C#N)Oc2c(c(=O)oc3ccccc23)C1c1ccc(Cl)cc1Cl` (stereo unspecified): the minimal inhibitory concentration (MIC) in [1], in assay [2], in [3], in assay [4], in assay [5] and in assay [6] was over 250 µg/mL in each case. The minimum inhibitory concentration (MIC) in assay [7] and in assay [8] was over 250 µg/mL in each case.

`O=C(O)c1cn(C2CC2)c2cc(N3CCNCC3)c(F)cc2c1=O` [CIPROFLOXACIN]: the MIC in [1], in assay [2], in [3], in assay [4], in [6] and in assay [7] was 0.9 µg/mL (≈ 2.72 µM) each time. For the same compound, in assay [8], the minimal inhibitory concentration (MIC) amounted to 0.9 µg/mL (≈ 2.72 µM). Further, the MBC in [9], in assay [10], in assay [11] and in assay [12] was 1.17 µg/mL (≈ 3.53 µM) in each case.

In the case of `COC(=O)C1(C#N)Oc2c(c(=O)oc3ccccc23)C1c1ccc(Cl)cc1` (stereo unspecified), the MIC in assay [1], in assay [2], in assay [3], in assay [4], in assay [5] and in assay [6] was over 250 µg/mL throughout. Further, the figures for the MIC in [7] and in assay [8] were over 250 µg/mL and 62.5 µg/mL (≈ 164 µM), respectively.

For the compound `CCOC(=O)C1(C#N)Oc2c(c(=O)oc3ccccc23)C1c1ccccc1` (stereo unspecified), the minimum inhibitory concentration (MIC) in assay [1], in [2], in [3], in assay [4], in assay [5] and in assay [6] was over 250 µg/mL throughout. Moreover, the MIC in [7] and in assay [8] was over 250 µg/mL throughout.

On to `COC(=O)C1(C#N)Oc2c(c(=O)oc3ccccc23)C1c1ccc(C(F)(F)F)cc1` (stereo unspecified), for which the MIC in assay [1], in assay [2], in [3], in assay [4], in [5] and in [6] was over 250 µg/mL each time. Moreover, the MIC in [7] and in assay [8] was over 250 µg/mL each time.

Regarding `COC(=O)C1(C#N)Oc2c(c(=O)oc3ccc(C)cc23)C1c1ccccc1` (stereo unspecified), the minimal inhibitory concentration (MIC) in assay [1], in [2], in [3], in [4], in assay [5] and in assay [6] was over 250 µg/mL in each case. Further, the minimal inhibitory concentration (MIC) in assay [7] and in assay [8] was over 250 µg/mL throughout.

Take `COC(=O)C1(C#N)Oc2c(c(=O)oc3ccccc23)C1c1ccc(C#N)cc1` (stereo unspecified): the minimum inhibitory concentration (MIC) in assay [1], in assay [2], in [3], in [4], in assay [5] and in assay [6] was over 250 µg/mL each time. Also, the minimum inhibitory concentration (MIC) in assay [7] and in assay [8] was over 250 µg/mL throughout.

Broadly, the MIC is the least concentration at which growth counts as inhibited. For orientation: MBC means the smallest concentration meeting the test's criterion for killing.
